Results reported in publication PMC3933693, “Novel Inhibitors of Mitochondrial sn-Glycerol 3-phosphate Dehydrogenase” (PLoS ONE, 2014).
pIC50: −log10 of the molar value.

Key:
[1] = target: T1, mGPDH (Rattus norvegicus, UniProt P35571); assay: Superoxide/H2O2 production by mGPDH in isolated skeletal muscle mitochondria (Amplex UltraRed); format: biochemical; settings: for pIC50: Fig. 4 structure/activity microplate assay, 0.08–80 µM, estimated, means of two replicates, read-out: mGPDH H2O2 production IC50; for inhibition at 80 µM: read-out: mGPDH H2O2 production (% change at 80 μM)
T1 construct: Activity of mGPDH in frozen-thawed skeletal muscle mitochondria was measured; from tissue; host or cells: skeletal muscle mitochondria
T1 sequence (P35571 43-727): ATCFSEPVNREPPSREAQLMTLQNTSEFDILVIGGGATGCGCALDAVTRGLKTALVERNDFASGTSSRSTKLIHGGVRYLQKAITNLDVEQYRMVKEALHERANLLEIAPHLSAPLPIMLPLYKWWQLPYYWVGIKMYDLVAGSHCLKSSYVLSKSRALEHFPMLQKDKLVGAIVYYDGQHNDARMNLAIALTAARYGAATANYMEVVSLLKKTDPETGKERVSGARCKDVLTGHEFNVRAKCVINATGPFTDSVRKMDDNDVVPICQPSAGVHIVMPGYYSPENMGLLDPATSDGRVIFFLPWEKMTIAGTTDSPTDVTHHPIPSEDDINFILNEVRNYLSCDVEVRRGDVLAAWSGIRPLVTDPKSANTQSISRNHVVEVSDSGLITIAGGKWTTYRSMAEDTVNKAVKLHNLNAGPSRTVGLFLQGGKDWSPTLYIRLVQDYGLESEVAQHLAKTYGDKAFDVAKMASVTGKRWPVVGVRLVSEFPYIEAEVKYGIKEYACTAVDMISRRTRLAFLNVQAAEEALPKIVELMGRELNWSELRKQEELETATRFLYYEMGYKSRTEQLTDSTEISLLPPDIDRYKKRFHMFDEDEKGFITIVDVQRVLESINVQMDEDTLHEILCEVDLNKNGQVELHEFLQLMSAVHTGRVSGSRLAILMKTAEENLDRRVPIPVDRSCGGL

[2] = system: flavin mononucleotide site of complex I (site IF) plus matrix NAD-linked dehydrogenases (site IF/DH); assay: Site-specific H2O2 production from site IF/DH in skeletal muscle mitochondria; format: biochemical, rat; settings: primary screen, ∼2.5 µM, average of duplicates
Protocol: (§1) Superoxide was measured as H2O2 after dismutation by endogenous or exogenous superoxide dismutase. Rates of total superoxide/H2O2 production were measured fluorimetrically using Amplex UltraRed in the presence of exogenous superoxide dismutase and horseradish peroxidase in a Varian Cary Eclipse fluorimeter as previously described. Rates of production from specific sites were determined as previously described using the following eight conditions: flavin mononucleotide site of complex I (site IF) plus matrix NAD-linked dehydrogenases (collectively "site IF/DH") with 5 mM glutamate, 5 mM malate, and 4 µM rotenone; ubiquinone-binding site of complex I (site IQ) with either 0.5 or 5 mM succinate; flavin site of complex II (site IIF) with either 15 µM palmitoylcarnitine, 2.5 µM antimycin A, and 2 µM myxothiazol or 0.5 mM succinate, 4 µM rotenone, 2.5 µM antimycin A, and 2 µM myxothiazol, [31]; mGPDH with 1.7 mM glycerol phosphate, 4 µM rotenone, 2.5 µM antimycin A, 2 µM myxothiazol, 1 mM malonate, and 250 nM free calcium; outer ubiquinone-binding site of complex III (site IIIQo) with either 0.5 or 5 mM succinate, 4 µM rotenone and 2.5 µM antimycin A [32]. Candidate small-molecule inhibitors were added prior to the start of measurements and H2O2 calibration curves were performed in the presence of tested compounds.
(§2) 3,200 compounds were tested initially at 2.5 µM (0.025% DMSO final) in duplicate on different plates against a panel of five distinct assays of site-specific superoxide/H2O2 production as described in the previous section with minor changes. […] Endpoint fluorescence was measured on a Perkin Elmer Victor V3 fluorescent plate reader. The fluorescence intensity of each well was normalized as % change from the average of eight DMSO controls on the same plate. Duplicate wells of each of four modulators of mitochondrial metabolism known to inhibit specific sites of superoxide/H2O2 production were included on each plate as positive controls and the resulting fluorescence levels set as −100% change from DMSO controls. Known inhibitors included 20 mM aspartate (for site IF/DH), 1 µM FCCP (for site IQ), 10 mM malonate (for site IIF), and 2 µM myxothiazol (for site IIIQo). The background fluorescence of the FCCP wells in the site IQ assay was used to normalize mGPDH plates run in parallel. To minimize position-dependent effects across each assay plate, Tukey’s two-way median polish was applied to fluorescence values after initial normalization, [36]. Tukey’s polish is an iterative subtraction of the median row and column values from each well’s given row or column. The procedure is repeated until sequential medians for each row and column are zero and positional gradients in fluorescence are eliminated.

[3] = system: ubiquinone-binding site of complex I (site IQ); assay: Site-specific H2O2 production from site IQ in skeletal muscle mitochondria; format: biochemical, rat; settings: 5 mM succinate;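 further: H2O2 from superoxide detected by Amplex UltraRed fluorescence with added superoxide dismutase and horseradish peroxidase, endpoint read 30–40 min after substrate addition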
Protocol: Superoxide was measured as H2O2 after dismutation by endogenous or exogenous superoxide dismutase. Rates of total superoxide/H2O2 production were measured fluorimetrically using Amplex UltraRed in the presence of exogenous superoxide dismutase and horseradish peroxidase in a Varian Cary Eclipse fluorimeter as previously described [27]. Rates of production from specific sites were determined as previously described using the following eight conditions: flavin mononucleotide site of complex I (site IF) plus matrix NAD-linked dehydrogenases (collectively "site IF/DH") with 5 mM glutamate, 5 mM malate, and 4 µM rotenone [28]; ubiquinone-binding site of complex I (site IQ) with either 0.5 or 5 mM succinate [29]; flavin site of complex II (site IIF) with either 15 µM palmitoylcarnitine, 2.5 µM antimycin A, and 2 µM myxothiazol or 0.5 mM succinate, 4 µM rotenone, 2.5 µM antimycin A, and 2 µM myxothiazol [30], [31]; mGPDH with 1.7 mM glycerol phosphate, 4 µM rotenone, 2.5 µM antimycin A, 2 µM myxothiazol, 1 mM malonate, and 250 nM free calcium; outer ubiquinone-binding site of complex III (site IIIQo) with either 0.5 or 5 mM succinate, 4 µM rotenone and 2.5 µM antimycin A [32]. Candidate small-molecule inhibitors were added prior to the start of measurements and H2O2 calibration curves were performed in the presence of tested compounds.
3,200 compounds were tested initially at 2.5 µM (0.025% DMSO final) in duplicate on different plates against a panel of five distinct assays of site-specific superoxide/H2O2 production as described in the previous section with minor changes. […] Endpoint fluorescence was measured on a Perkin Elmer Victor V3 fluorescent plate reader. The fluorescence intensity of each well was normalized as % change from the average of eight DMSO controls on the same plate. Duplicate wells of each of four modulators of mitochondrial metabolism known to inhibit specific sites of superoxide/H2O2 production were included on each plate as positive controls and the resulting fluorescence levels set as −100% change from DMSO controls. Known inhibitors included 20 mM aspartate (for site IF/DH), 1 µM FCCP (for site IQ), 10 mM malonate (for site IIF), and 2 µM myxothiazol (for site IIIQo). The background fluorescence of the FCCP wells in the site IQ assay was used to normalize mGPDH plates run in parallel. To minimize position-dependent effects across each assay plate, Tukey’s two-way median polish was applied to fluorescence values after initial normalization [35], [36]. Tukey’s polish is an iterative subtraction of the median row and column values from each well’s given row or column. The procedure is repeated until sequential medians for each row and column are zero and positional gradients in fluorescence are eliminated.
These 20 compounds were tested in duplicate at 0.08–80 µM (0.1% DMSO final) in microplate format for effects on site-specific H2O2 production as described above. […] Plates were incubated in the dark at room temperature for 30–40 min (H2O2) or 10–15 min (ΔΨm) after the addition of substrate, and endpoint fluorescence was measured on the Victor plate reader. Endpoints were chosen for the H2O2 assays to provide good signal-to-noise ratios and linear rates of change without the indicator dye limiting the reaction.

[4] = target: T2, flavin site of complex II (site IIF) (Rattus norvegicus, UniProt Q920L2); assay: Site-specific H2O2 production from site IIF in skeletal muscle mitochondria; format: biochemical; settings: primary screen, ∼2.5 µM, average of duplicates; palmitoylcarnitine
T2 construct: from tissue; host or cells: skeletal muscle mitochondria
T2 sequence (Q920L2 35-656): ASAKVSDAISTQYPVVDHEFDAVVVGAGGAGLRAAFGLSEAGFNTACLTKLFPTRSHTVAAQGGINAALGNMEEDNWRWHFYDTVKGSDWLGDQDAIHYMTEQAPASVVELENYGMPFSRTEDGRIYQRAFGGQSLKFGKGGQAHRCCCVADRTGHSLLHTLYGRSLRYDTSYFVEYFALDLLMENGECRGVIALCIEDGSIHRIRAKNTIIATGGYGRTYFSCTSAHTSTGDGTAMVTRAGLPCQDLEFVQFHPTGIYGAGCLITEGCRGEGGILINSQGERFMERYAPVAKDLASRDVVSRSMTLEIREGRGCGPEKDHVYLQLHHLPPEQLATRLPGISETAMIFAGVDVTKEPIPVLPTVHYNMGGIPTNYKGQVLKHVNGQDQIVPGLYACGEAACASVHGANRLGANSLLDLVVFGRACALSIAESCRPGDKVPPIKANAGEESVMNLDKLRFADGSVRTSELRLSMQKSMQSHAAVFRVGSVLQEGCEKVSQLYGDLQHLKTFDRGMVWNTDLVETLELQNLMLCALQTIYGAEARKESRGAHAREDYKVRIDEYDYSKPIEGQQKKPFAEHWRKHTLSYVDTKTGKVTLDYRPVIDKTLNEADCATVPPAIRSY
T2 sequence (P21913 31-282 partner): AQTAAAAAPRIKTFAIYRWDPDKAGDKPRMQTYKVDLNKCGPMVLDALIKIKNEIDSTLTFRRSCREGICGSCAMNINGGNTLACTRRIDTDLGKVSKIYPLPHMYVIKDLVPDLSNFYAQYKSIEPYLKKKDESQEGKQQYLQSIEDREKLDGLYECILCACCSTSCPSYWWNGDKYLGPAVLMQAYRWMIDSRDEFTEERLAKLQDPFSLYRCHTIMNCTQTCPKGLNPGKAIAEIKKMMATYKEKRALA
T2 sequence (Q641Z9 30-169 partner limits assumed): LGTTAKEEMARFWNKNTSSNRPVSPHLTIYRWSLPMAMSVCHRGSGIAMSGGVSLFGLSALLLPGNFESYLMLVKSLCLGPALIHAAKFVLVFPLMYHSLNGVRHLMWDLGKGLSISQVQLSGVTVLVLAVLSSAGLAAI
T2 sequence (Q6PCT8 57-159 partner): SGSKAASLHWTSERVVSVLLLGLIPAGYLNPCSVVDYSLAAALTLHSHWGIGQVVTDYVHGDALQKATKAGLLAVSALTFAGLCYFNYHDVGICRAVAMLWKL
Protocol: as §1, §2

[5] = target: T3, outer ubiquinone-binding site of complex III (site IIIQo) (Rattus norvegicus, UniProt P00159+P20788); assay: Site-specific H2O2 production from site IIIQo in skeletal muscle mitochondria; format: biochemical; settings: primary screen, ∼2.5 µM, average of duplicates; 5 mM succinate
T3 construct: from tissue; host or cells: skeletal muscle mitochondria
Protocol: as §1, §2

[6] = system: skeletal muscle mitochondria; assay: Mitochondrial membrane potential (ΔΨm, TMRM) powered by glutamate plus malate; format: biochemical, rat; settings: for ΔΨm with Glu + Mal + Nig (% change at 80 μM) / ΔΨm with Glu + Mal (% change at 80 μM): 5 mM glutamate, 5 mM malate; for ΔΨm with Glu + Mal + Nig (% change at 80 μM): with nigericin; for ΔΨm with Glu + Mal (% change at 80 μM): without nigericin
Protocol: (§3) Mitochondrial membrane potential (ΔΨm) was estimated fluorimetrically as described previously [33] on the Varian fluorimeter, except the potentiometric dye TMRM was used in quench-mode in place of safranine O [34]. […] The effect of putative small-molecule inhibitors was normalized as the % change in fluorescence between vehicle treatment and complete depolarization by the uncoupler carbonyl cyanide-4-(trifluoromethoxy)phenylhydrazone (FCCP, 2 µM) added at the end of each run. When indicated, the K^+/H^+ exchanger nigericin (80 ng ⋅ ml^−1) was added to collapse the pH gradient across the mitochondrial inner membrane (ΔpH) and maximize ΔΨm.
(§4) All assays were performed with stirring at 37°C.
(§5) Additionally, four microplate assays for ΔΨm were run in parallel to the H2O2 assays. These assays were as described under “Measurement of mitochondrial H2O2 production and membrane potential” except that each substrate condition was assayed in a separate microplate. […] Plates were incubated in the dark at room temperature for 30–40 min (H2O2) or 10–15 min (ΔΨm) after the addition of substrate, and endpoint fluorescence was measured on the Victor plate reader. […] Endpoints for the ΔΨm assays were determined in pilot experiments as the times for TMRM accumulation to reach a steady state. At room temperature, this was typically ∼ 5 min and remained stable for at least 30 min. Endpoint fluorescence values were normalized as described in the previous section with wells containing FCCP serving as positive controls for the ΔΨm assays.

[7] = system: skeletal muscle mitochondria; assay: Mitochondrial membrane potential (ΔΨm, TMRM) powered by glycerol phosphate; format: biochemical, rat; settings: 80 μM; 16.7 mM glycerol phosphate, 4 µM rotenone, nigericin
Protocol: as §3, §4, §5

| Compound | pIC50 [1] | mGPDH (% change from DMSO) ([1]; primary screen, ∼2.5 µM, average of duplicates, 16.7 mM glycerol phosphate, no added calcium) [%] | inhibition at 80 µM [1] [%] | IF/DH (% change from DMSO) [2] [%] | IQ H2O2 production with 5 mM Suc (% change at 80 μM) [3] [%] | IQ (% change from DMSO) ([3]; primary screen, ∼2.5 µM, average of duplicates) [%] | IIF (% change from DMSO) [4] [%] | IIIQo (% change from DMSO) [5] [%] | ΔΨm with Glu + Mal + Nig (% change at 80 μM) [6] [%] | ΔΨm with Glu + Mal (% change at 80 μM) [6] [%] | ΔΨm (% change from DMSO) ([6]; primary screen, ∼2.5 µM, average of duplicates, glutamate and malate) [%] | ΔΨm with GP + Nig (% change at 80 μM) [7] [%] | lowering of potency versus mGPDH ROS production relative to iGP-1 ([1]; ortho- to para- positioning) |
| --- | --- | --- | --- | --- | --- | --- | --- | --- | --- | --- | --- | --- | --- |
| O=C(O)CCC(=O)Nc1ccc(-c2nc3ccccc3o2)cc1 [iGP-2] | 4.70 | -12.2 | 50 | -2.6 | -57 | 0.759 | 2.1 | 2.5 | 18 | 107 | 0.8 | 1 | – |
| O=C(O)CCC(=O)Nc1cccc(-c2nc3ccccc3[nH]2)c1 [iGP-8] | 4.30 | – | 44 | – | -14 | – | – | – | 1 | 3 | – | -7 | more than 5 fold |
| CCCC(=O)Nc1ccc(-c2nc3cc4ccccc4cc3[nH]2)cc1 [iGP-9] | – | – | 2 | – | -1 | – | – | – | 5 | 26 | – | 5 | – |
| c1ccc2[nH]c(-c3ccc(-c4nc5ccccc5[nH]4)cc3)nc2c1 [iGP-10] | – | – | 0 | – | -77 | – | – | – | -78 | -58 | – | -78 | – |
| C=C(C)C(=O)Nc1ccc(-c2nc3ccccc3[nH]2)cc1 [iGP-11] | – | – | 5 | – | -54 | – | – | – | -1 | 54 | – | 1 | – |
| CC(=O)Nc1ccc(-c2nc3ccccc3[nH]2)cc1 [iGP-12] | – | – | 28 | – | -21 | – | – | – | 2 | 10 | – | 2 | – |
| O=C(Nc1ccc(-c2nc3ccccc3[nH]2)cc1)c1ccco1 [iGP-13] | 4.10 | – | 37 | – | -82 | – | – | – | 10 | 23 | – | 13 | – |
| CCOc1ccc(C(=O)Nc2ccc(-c3nc4ccccc4[nH]3)cc2)cc1 [iGP-15] | – | – | -11 | – | -15 | – | – | – | -42 | 10 | – | -25 | – |
| O=C(Nc1ccc(-c2nc3ccccc3[nH]2)cc1)C1CC1 [iGP-16] | – | – | 7 | – | -24 | – | – | – | 1 | 4 | – | 2 | – |
| CCCCCCNC(=O)CCC(=O)O [iGP-17] | – | – | -6 | – | -1 | – | – | – | -1 | -1 | – | 0 | – |
| O=C(O)CCC(=O)Nc1ccc(Cl)cc1 [iGP-18] | – | – | -2 | – | 6 | – | – | – | -3 | -9 | – | -1 | – |
| Cc1ccc(NC(=O)CCC(=O)O)cc1 [iGP-19] | – | – | 1 | – | 7 | – | – | – | -2 | -8 | – | -2 | – |
| COC(=O)CCC(=O)Nc1ccc(C)cc1 [iGP-20] | – | – | 20 | – | -8 | – | – | – | -1 | -3 | – | 0 | – |
